Reference: ChEMBL document CHEMBL4359871, “Novel electrophilic amides amenable by the Ugi reaction perturb thioredoxin system via thioredoxin reductase 1 (TrxR1) inhibition: Identification of DVD-445 as a new lead compound for anticancer therapy” (Eur J Med Chem, 2019)
The source made the active and inactive calls. No cut-off for these calls is given here.

Legend:
[1] = molecular target: T1, Thioredoxin reductase 1, cytoplasmic (Homo sapiens, UniProt Q16881); assay: Inhibition of TrxR1 (unknown origin) using DTNB as substrate preincubated for 30 mins in presence of insulin followed by substrate addition by colorimetry
T1 sequence (Q16881 whole entry): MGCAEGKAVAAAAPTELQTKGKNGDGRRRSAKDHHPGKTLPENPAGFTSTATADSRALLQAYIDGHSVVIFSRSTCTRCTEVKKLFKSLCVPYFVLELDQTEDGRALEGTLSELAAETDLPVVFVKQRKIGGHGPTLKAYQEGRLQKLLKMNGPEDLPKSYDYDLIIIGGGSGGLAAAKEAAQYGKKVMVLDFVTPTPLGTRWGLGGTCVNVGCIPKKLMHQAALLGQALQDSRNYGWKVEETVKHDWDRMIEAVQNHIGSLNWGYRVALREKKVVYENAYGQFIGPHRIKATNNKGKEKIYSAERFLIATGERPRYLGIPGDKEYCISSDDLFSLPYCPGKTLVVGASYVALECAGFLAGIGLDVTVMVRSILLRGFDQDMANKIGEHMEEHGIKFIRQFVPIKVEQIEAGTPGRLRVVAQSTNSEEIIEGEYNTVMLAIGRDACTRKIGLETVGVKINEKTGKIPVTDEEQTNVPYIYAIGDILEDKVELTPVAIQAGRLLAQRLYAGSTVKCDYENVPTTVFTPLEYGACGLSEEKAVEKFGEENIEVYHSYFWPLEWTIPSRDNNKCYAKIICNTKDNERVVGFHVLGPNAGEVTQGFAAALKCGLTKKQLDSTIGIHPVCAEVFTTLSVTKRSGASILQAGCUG

HaCaT [2] = assay: Induction of RNS generation in human HaCaT cells incubated for 24 hrs by DHR staining based flow cytometry; format: cell-based
[3] = molecular target: T2, Thioredoxin reductase 1, cytoplasmic (Rattus norvegicus, UniProt O89049); assay: Inhibition of rat TrxR1 using DTNB as substrate preincubated for 15 mins followed by substrate addition and measured for 20 mins by Ellman's method
T2 sequence (O89049 whole entry): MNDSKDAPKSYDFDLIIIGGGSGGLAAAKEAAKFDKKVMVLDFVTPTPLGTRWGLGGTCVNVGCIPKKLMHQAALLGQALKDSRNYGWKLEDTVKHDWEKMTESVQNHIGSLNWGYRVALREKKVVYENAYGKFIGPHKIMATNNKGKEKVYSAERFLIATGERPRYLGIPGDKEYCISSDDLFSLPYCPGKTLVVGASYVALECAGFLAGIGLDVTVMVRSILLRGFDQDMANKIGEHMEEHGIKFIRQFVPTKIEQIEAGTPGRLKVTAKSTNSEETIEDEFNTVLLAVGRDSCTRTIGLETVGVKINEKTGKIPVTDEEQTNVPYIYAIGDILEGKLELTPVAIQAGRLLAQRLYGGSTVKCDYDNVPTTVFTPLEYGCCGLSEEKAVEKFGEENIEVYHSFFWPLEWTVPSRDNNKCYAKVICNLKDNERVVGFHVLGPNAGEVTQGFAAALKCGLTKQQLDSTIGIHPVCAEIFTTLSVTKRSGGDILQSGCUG

SH-SY5Y [4] = assay: Induction of ROS generation in human SH-SY5Y cells incubated for 24 hrs by DHE staining based flow cytometry; format: functional, cell-based
SH-SY5Y [5] = assay: Cytotoxicity against human SH-SY5Y cells assessed as reduction in cell viability incubated for 72 hrs by MTT assay; format: functional, cell-based
U-87 MG [6] = assay: Induction of ROS generation in human U87 cells incubated for 24 hrs by DHE staining based flow cytometry; format: functional, cell-based; conditions: U-87MG ATCC
SH-SY5Y [7] = assay: Induction of apoptosis in human SH-SY5Y cells assessed as late apoptotic cells incubated for 48 hrs by annexin V FITC and propidium iodide staining based flow cytometry (reference value: 1.37 %); format: functional
SH-SY5Y [8] = assay: Induction of apoptosis in human SH-SY5Y cells assessed as viable cells incubated for 48 hrs by annexin V FITC and propidium iodide staining based flow cytometry (reference value: 92.44 %); format: functional
[9] = Induction of apoptosis in human HaCaT cells assessed as viable cells incubated for 48 hrs by annexin V FITC and propidium iodide staining based flow cytometry (reference value: 95.78 %); format: cell-based; conditions: read-out: Activity
HaCaT [10] = assay: Induction of apoptosis in human HaCaT cells assessed as early apoptotic cells incubated for 48 hrs by annexin V FITC and propidium iodide staining based flow cytometry (reference value: 0.02 %); format: cell-based
[11] = molecular target: T3, Thioredoxin reductase 1, cytoplasmic (Rattus norvegicus) (UniProt O89049); assay: […] inhibition of rat TrxR1 using DTNB as substrate preincubated for 15 mins in presence of NADPH followed by substrate addition and measured for 20 mins by Ellman's method
T3 sequence (whole entry): T2 sequence (O89049 whole entry)

[12] = molecular target: T1, Thioredoxin reductase 1, cytoplasmic; assay: Inhibition of TrxR in human SH-SY5Y cells using DTNB as substrate preincubated for 15 mins followed by substrate addition and measured for 20 mins by Ellman's method; format: cell-based
U-87 MG [13] = assay: Induction of RNS generation in human U87 cells incubated for 24 hrs by DHR staining based flow cytometry; format: functional, cell-based; conditions: U-87MG ATCC
SH-SY5Y [14] = assay: Induction of RNS generation in human SH-SY5Y cells incubated for 24 hrs by DHR staining based flow cytometry; format: functional
PBMC = assay: Cytotoxicity against human PBMC assessed as reduction in cell viability incubated for 72 hrs by MTT assay; format: cell-based
U-87 MG [15] = assay: Cytotoxicity against human U87 cells assessed as reduction in cell viability incubated for 72 hrs by MTT assay; format: functional, cell-based, U-87MG ATCC
SH-SY5Y [16] = assay: Induction of apoptosis in human SH-SY5Y cells assessed as early apoptotic cells incubated for 48 hrs by annexin V FITC and propidium iodide staining based flow cytometry (reference value: 0.44 %); format: functional
HaCaT [17] = assay: Induction of ROS generation in human HaCaT cells incubated for 24 hrs by DHE staining based flow cytometry; format: cell-based
HaCaT [18] = assay: Induction of apoptosis in human HaCaT cells assessed as necrotic cells incubated for 48 hrs by annexin V FITC and propidium iodide staining based flow cytometry (reference value: 2.74 %); format: cell-based
SH-SY5Y [19] = assay: Induction of apoptosis in human SH-SY5Y cells assessed as necrotic cells incubated for 48 hrs by annexin V FITC and propidium iodide staining based flow cytometry (reference value: 5.75 %); format: functional
HaCaT [20] = assay: Induction of apoptosis in human HaCaT cells assessed as late apoptotic cells incubated for 48 hrs by annexin V FITC and propidium iodide staining based flow cytometry (reference value: 0.46 %); format: cell-based
HaCaT [21] = assay: Cytotoxicity against human HaCaT assessed as reduction in cell viability incubated for 72 hrs by MTT assay; format: cell-based

SMILES	IC50 [1]	IC50 [3]	inhibition [11]	IC50 [12]	Activity (HaCaT [2])	Activity (SH-SY5Y [4])	IC50 (SH-SY5Y [5])	Activity (U-87 MG [6])	Activity (SH-SY5Y [7])	Activity (SH-SY5Y [8])	viability at 48 h [9]	Activity (HaCaT [10])	Activity (U-87 MG [13])	Activity (SH-SY5Y [14])	IC50 (PBMC)	IC50 (U-87 MG [15])	Activity (SH-SY5Y [16])	Activity (HaCaT [17])	Activity (HaCaT [18])	IC50 (HaCaT [21])	other results
CC(C)(C)NC(=O)C(c1ccc(F)cc1)N(C(=O)/C=C/C(=O)c1ccc(F)cc1)C1CC1 (stereo not given)	0.82 µM	0.93 µM	Active	17.4 µM	Non-Toxic	inactive	0.56 µM	inactive	1.54%	86.76%	94%	0.07%	inactive	inactive	5.6 µM	0.8 µM	0.6%	Non-Toxic	5.21%	1.06 µM	Activity (SH-SY5Y [19]): 11.11%; Activity (HaCaT [20]): 0.77%
Cc1ccc(C(=O)/C=C/C(=O)N(C2CC2)C(C(=O)NCc2ccccc2)c2ncc(C)cn2)cc1 (stereo not given)	6.61 µM	4.2 µM	Active	31.8 µM	Non-Toxic	inactive	4.94 µM	inactive	2.91%	81.45%	91.7%	0.07%	inactive	inactive	15.3 µM	15.2 µM	1.1%	Non-Toxic	7.18%	5.45 µM	Activity (SH-SY5Y [19]): 14.54%; Activity (HaCaT [20]): 1.06%
Cc1ccc(C(=O)/C=C/C(=O)N(CC(C)C)C(C(=O)NC(C)(C)C)C(C)(C)C)cc1 (stereo not given)	–	–	–	> 200 µM	–	–	–	–	–	–	–	–	–	–	–	–	–	–	–	–	–
COc1cc(/C=C/C(=O)N2CCC=CC2=O)cc(OC)c1OC [PIPLARTINE]	–	–	–	–	–	–	5.94 µM	–	–	–	–	–	–	–	–	7.18 µM	–	–	–	3.03 µM	–
Cc1ccc(C(=O)/C=C/C(=O)N(C2CC2)C(C(=O)NC2CCCCC2)c2ccc(F)cc2)cc1 (stereo not given)	–	–	–	29.3 µM	–	–	–	–	–	–	–	–	–	–	–	–	–	–	–	–	–
COc1cc(C(C(=O)NC(C)(C)C)N(CCC(C)C)C(=O)/C=C/C(=O)c2ccc(F)cc2)cc(OC)c1OC (stereo not given)	2.51 µM	1.25 µM	Active	8.58 µM	Non-Toxic	inactive	2.96 µM	inactive	0.39%	37.57%	65.3%	0.14%	inactive	>=30%	7.29 µM	2.92 µM	0.07%	Non-Toxic	29.45%	1.05 µM	Activity (SH-SY5Y [19]): 61.97%; Activity (HaCaT [20]): 5.06%
Cc1ccc(C(=O)C[C@H]2C(=O)N(C3CCCCC3)[C@H](c3cccnc3)C(=O)N2Cc2ccccc2)cc1 (racemic)	–	–	–	> 200 µM	–	–	–	–	–	–	–	–	–	–	–	–	–	–	–	–	–

The next lines start with results.

IC50 [1]	IC50 [3]	inhibition [11]	IC50 [12]	SMILES	Activity (HaCaT [2])	Activity (SH-SY5Y [4])	IC50 (SH-SY5Y [5])	Activity (U-87 MG [6])	Activity (SH-SY5Y [7])	Activity (SH-SY5Y [8])	viability at 48 h [9]	Activity (HaCaT [10])	Activity (U-87 MG [13])	Activity (SH-SY5Y [14])	IC50 (PBMC)	IC50 (U-87 MG [15])	Activity (SH-SY5Y [16])	Activity (HaCaT [17])	Activity (HaCaT [18])	IC50 (HaCaT [21])	other results
5.28 µM	3.12 µM	Active	51.2 µM	COc1ccccc1C(C(=O)NC1CCCCC1)N(C(=O)/C=C/C(=O)c1ccc(C)cc1)C1CCCCC1 (stereo not given)	Non-Toxic	inactive	1.77 µM	inactive	0.92%	57.22%	89.1%	0.07%	inactive	>=30%	1.62 µM	1.41 µM	0.25%	Non-Toxic	9.65%	1.56 µM	Activity (SH-SY5Y [19]): 41.62%; Activity (HaCaT [20]): 1.15%
0.96 µM	0.6 µM	Active	7.26 µM	CN(CCOC(=O)/C=C/C(=O)c1ccc(F)cc1)C(C(=O)NC(C)(C)C)c1ccc(F)cc1 (stereo not given)	Non-Toxic	inactive	11 µM	inactive	6.73%	75.74%	93.9%	0.03%	inactive	inactive	55.7 µM	9.7 µM	2.57%	Non-Toxic	5.21%	8.3 µM	Activity (SH-SY5Y [19]): 14.96%; Activity (HaCaT [20]): 0.83%
–	–	–	81.6 µM	CCCN(C(=O)/C=C/C(=O)c1ccc(C)cc1)C(C(=O)NC1CCCCC1)c1ccc(C)cc1 (stereo not given)	–	–	–	–	–	–	–	–	–	–	–	–	–	–	–	–	–
–	–	–	> 200 µM	COc1ccc(C(C(=O)NC2CCCCC2)N(CC(C)C)C(=O)/C=C/C(=O)c2ccc(C)cc2)cc1 (stereo not given)	–	–	–	–	–	–	–	–	–	–	–	–	–	–	–	–	–
–	–	–	30.5 µM	CCCCN(C(=O)/C=C/C(=O)c1ccc(F)cc1)C(C(=O)NCc1ccccc1)C(C)(C)C (stereo not given)	–	–	–	–	–	–	–	–	–	–	–	–	–	–	–	–	–
–	–	–	76.6 µM	COc1ccc(C(C(=O)NC(C)(C)C)N(C(=O)/C=C/C(=O)c2ccc(C)cc2)C2CC2)cc1OC (stereo not given)	–	–	–	–	–	–	–	–	–	–	–	–	–	–	–	–	–
